Reference: patent publication US20160030631A1, “Injectable Biodegradable Bone Matrix for Multiple Myeloma Lesion Augmentation and Osteoporosis” (THE UNIVERSITY OF TOLEDO, priority 2013, published 2016)
Where a SMILES comes first, the peptide text is derived from it. Bridges are numbered along the chain shown (N, C = ends). The star is where a group is joined. Cbz = O=C(OCc1ccccc1)*

Legend:
RAW 264.7 culture = assay: Anti-osteoclastogenesis: cathespin K expression by real-time PCR; type: cell-based; settings: MG132 released from cement; 5-day TNFalpha treatment
Method: The anti-osteoclastogenesis of MG132-loaded cement was tested after a 5-day treatment of TNFalpha in RAW 264.7 culture. In this case, expression of the marker gene cathespin K was measured by real-time PCR.

[1] = test system: pre-osteoclast RAW 264.7 cell culture; assay: TRAP+ cell staining for osteoclast activation with WP9QY-loaded cement; type: cell-based; settings: WP9QY released from MWCNT/CPC or CPC; 5 days; TNFalpha stimulated; FIG. 6
Source text: The MWCNT/CPC or CPC alone were loaded with WP9QY ([…], [SEQ ID NO: 1]), which is a peptide compound designed to compete ligand binding of RANK and to inhibit osteoclastogensis. The WP9QY peptide has a sequence of H-[…]OH [SEQ ID NO: 1], and was developed based on a structural analysis of the ligand binding site on TNF receptor 1 and RANK to inhibit osteoclast-activating. This cyclic peptide mimics the most critical tumor necrosis factor (TNF) recognition loop on TNF receptor 1, and prevents interaction of TNF with its receptor. The peptide was added directly to the cement paste to form the bone filler composition. Briefly, 100 μL of 1 mg/mL WP9QY was added into 0.5 mL DI water when mixing with 1 g of cement powder.
The cement pellet was washed with ethanol and left in a pre-osteoclast RAW 264.7 cell culture treated to trigger cell differentiation. To measure anti-osteoclast maturation of WP9QY released from the cement, the culture was stained for TRAP+ (osteoclast-like) cells after 5 days. TRAP+ cells are a marker for active osteoclasts after stimulated by the cytokine TNFalpha. The results, shown in FIG. 6, indicate that both composites can carry and release WP9QY.

Compound | osteoclast maturation (cathespin K expression) (RAW 264.7 culture) | osteoclast activation (TRAP+ cells) [1]
CC(C)C[C@@H](C=O)NC(=O)[C@H](CC(C)C)NC(=O)[C@H](CC(C)C)NC(=O)OCc1ccccc1 [MG132] (Cbz-Leu-Leu-Leu-aldehyde) | osteoclast maturation can be inhibited | –
H-Tyr-Cys-Trp-Ser-Gln-Tyr-Leu-Cys-Tyr-OH (H-YCWSQYLCY-OH; disulfide 2-8 (inferred)) [WP9QY] | – | osteoclast activation was inhibited
